Values after ≈ are worked out from the molar mass of the structure shown. Where two headings read alike, the source gives them in different places. *1 amine or outer side, *2 acyl side, *3 side chain or, on linkers, in order; H or OH if unused. Where a SMILES comes first, the peptide text is derived from it. Bridges are numbered along the chain shown (N, C = ends). Roman numbers before positions name the chains, in order. [ ]: non-standard residue; d: D form. The star is where a group is joined. X5 = C#CCOCCOCCOCCOCCN1C[C@@H](C(=O)[*:1])[C@H](C(=O)[*:2])C1; X2 = O=C([C@@H](N[*:1])[C@H](O)CCC(F)(F)F)[*:2]; Propargyl(OCH2CH2)4CO = C#CCOCCOCCOCCOCCC(=O)*; X3 = CCCCC[C@@H](O)[C@H](N[*:1])C(=O)[*:2]; azaDab = NCCN(N[*:1])C(=O)[*:2]; Aoc(2) = CCCCCC[C@H](N)C(=O)O; hLeu = CC(C)CC[C@H](N)C(=O)O; Nle = CCCC[C@H](N)C(=O)O; Dab = NCC[C@H](N)C(=O)O; azaGly = NNC(=O)O
Assays:
[1] = tested on: Ec 2469; type: cell-based, Escherichia coli
Procedure, shortened: (§1)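 Compounds were serially diluted 2-fold (8 or 12 points) against inocula from MHA cultures, set to ~0.1 OD600 in 0.85% saline. Conjugates were tested in RPMI B. Plates were incubated at 35 °C for 16-20 h, and Pa LES431 was also run with and without 50% heat-inactivated FBS.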

[2] = tested on: Ec 25922; type: cell-based, Escherichia coli; conditions: for MIC in RPMI EC 25922: pH 7.4
Procedure, shortened: as §1

[3] = tested on: Kp 10031; type: cell-based, Klebsiella pneumoniae
Procedure, shortened: as §1

[4] = tested on: Kp 43816; type: cell-based, Klebsiella pneumoniae
Procedure, shortened: as §1

[5] = tested on: Kp 6951 (COL^R); type: cell-based, Klebsiella pneumoniae; conditions: Kp 6951 (COL^R); media CA-MHB
Procedure, shortened: as §1

[6] = tested on: A. baumannii AB5075; type: cell-based
Experimental: (§2) Overnight stationary-phase cultures were centrifuged at 3,500×g for 10 min at room temperature and resuspended in 1×PBS to an optical density at 600 nm (OD600) of 0.4 (1×10^8 colony forming units [CFU]/ml) in RPMI with L-glutamine and phenol red (Life Technologies). Bacteria were diluted 1:25 in RPMI ([…]) and 10 ul added to wells of a non-binding 96-well plate (Corning 3641) containing 80 ul of 50% hirudin anti-coagulated blood (complement active) in RPMI. […] MBC was defined as the minimum conjugate concentration required for bacterial clearance (Table 8A and Table 8B). An untreated growth control (40% blood, 0 ug/ml conjugate) was included in all assays as a growth comparator.
(§3) MBC was defined as the minimum compound concentration required for complete bacterial clearance (Table 18).
(§4) In most cases, 2-4 fold improvements in antibacterial activity for the conjugates are observed in the presence of complement active human blood.

[7] = tested on: E. coli ATCC 25922; type: cell-based
Experimental: as §2, §3, §4

[8] = tested on: P. aeruginosa PAO1; type: cell-based
Experimental: as §2, §3, §4

[9] = tested on: A. baumannii AB5075; test: Lethal A. baumannii lung infection (mouse pneumonia) model, survival; type: in vivo, Acinetobacter baumannii; conditions: mouse pneumonia model vs. AB5075; 5 mg/kg, twice intravenously, t=+1 h and +4 h; n=5
[10] = tested on: A. baumannii AB5075; test: Murine pneumonia model vs. A. baumannii AB5075 (survival); type: in vivo, C57BI/6J mice; conditions: 1×10^8 CFU; for protection against lethal challenge (survival monitored 5 days): 5 mg/kg IV twice at t=+1 h and +4 h, n=5 (FIG. 118)
Experimental: (§5) The murine pneumonia model was adapted from Lin et al., 2015 (PMID: 26288841). A. baumannii AB5075 was grown to log-phase in LB at 37° C., 200 rpm shaking. Bacteria were washed once with PBS via centrifugation at 4,000 rpm. Bacteria were adjusted to the desired concentration in PBS.
Prior to infection, 8-week-old female C57BI/6J mice (Jackson Labs) were anesthetized with 100 mg/kg ketamine and 10 mg/kg xylazine. Using an otoscope, mice were infected non-invasively directly into the trachea.
Mice were infected with 5×10^7 CFU in 30 μL of PBS. Mice were treated intraperitoneally with different doses of conjugate 23 or hIgG1 (50 mpk) at t=−12 h pre-infection and t=+1 h post-infection or with colistin (10 mpk) or PBS at t=+1 h, 5 h, 24 h, 36 h, 48 h and 60 h post-infection.
Survival of mice (n=5 per group) was monitored for 5 days. […] Colistin was used as positive control resulting in 80% protection.
as §5, with “PBS. Prior to infection, 8-week-old female C57BI/6J mice (Jackson Labs) were anesthetized with 100 mg/kg ketamine and 10 mg/kg xylazine. Using an otoscope, mice were infected non-invasively directly into the trachea.” for “PBS.”
Mice were infected with 5×10^7 CFU in 30 μL of PBS. Mice were treated intraperitoneally with conjugate 34 or hIgG1 (50 mpk) at t=−12 h pre-infection.
Survival of mice (n=4 per group) was monitored for 5 days. A single dose of ADC conjugate 34 was protective (75% survival) against a lethal challenge with A. baumannii AB5075.
The murine pneumonia model was adapted from Lin et al., 2015 (PMID: 26288841). A. baumannii AB5075 was grown to log-phase in LB at 37° C., 200 rpm shaking. Bacteria were washed once with PBS via centrifugation at 4,000 rpm. Bacteria were adjusted to desired concentration in PBS. […]
The survival (n=5 per group) was monitored twice daily for 5 days. […]

**Q.** What does the source list for `C#CCOCCOCCOCCOCCN1C[C@@H](C(=O)N[C@@H](CCCC)C(=O)N[C@@H](CCN)C(=O)N[C@H](C(=O)NNC(=O)N[C@H]2CCNC(=O)[C@H]([C@@H](C)O)NC(=O)[C@H](CCN)NC(=O)[C@H](CCN)NC(=O)[C@H](CC(C)C)NC(=O)[C@@H](Cc3ccccc3)NC(=O)[C@H](CCN)NC2=O)[C@@H](C)O)[C@H](C(=O)N[C@@H](CCCC)C(=O)N[C@@H](CCN)C(=O)N[C@H](C(=O)NNC(=O)N[C@H]2CCNC(=O)[C@H]([C@@H](C)O)NC(=O)[C@H](CCN)NC(=O)[C@H](CCN)NC(=O)[C@H](CC(C)C)NC(=O)[C@@H](Cc3ccccc3)NC(=O)[C@H](CCN)NC2=O)[C@@H](C)O)C1` [Int-120] (I: [Nle][Dab]T[azaGly][Dab][Dab][dF]L[Dab][Dab]T / II: [Nle][Dab]T[azaGly][Dab][Dab][dF]L[Dab][Dab]T; lactam I:5-I:C, II:5-II:C; linker I:N-II:N via X5)?
**A.** MIC ([1]; Ec 2469, media CA-MHB): 2 µg/mL (≈ 0.767 µM); MIC ([2]; Ec 25922 + FBS (50%, heat-inactivated), media CA-MHB): 0.25 µg/mL; MIC ([2]; Ec 25922, media CA-MHB): 2 µg/mL (≈ 0.767 µM); MIC ([3]; Kp 10031, media CA-MHB): 2 µg/mL (≈ 0.767 µM); MIC ([4]; Kp 43816, media CA-MHB): 2 µg/mL (≈ 0.767 µM); MIC [5]: 8 µg/mL (≈ 3.07 µM)

**Q.** With `C#CCOCCOCCOCCOCCC(=O)N[C@@H](CCC(C)C)C(=O)N[C@@H](CCN)C(=O)N[C@H](C(=O)NN(CCN)C(=O)N[C@H]1CCNC(=O)[C@H]([C@@H](C)O)NC(=O)[C@H](CCN)NC(=O)[C@H](CCN)NC(=O)[C@H](CC(C)C)NC(=O)[C@@H](Cc2ccccc2)NC(=O)[C@H](CCN)NC1=O)[C@@H](C)O` [Int-127] ({Propargyl(OCH2CH2)4CO}-[hLeu][Dab]T[azaDab][Dab][Dab][dF]L[Dab][Dab]T; lactam 5-C) as the compound, how does the “MBC in blood AB 5075” value [6] read?
**A.** 0.1 µg/mL (≈ 0.0697 µM)

**Q.** And the “MBC in blood EC 25922” value [7]?
**A.** 0.025 µg/mL (≈ 0.0174 µM)

**Q.** What about the “MBC in blood PA 01” value [8] of the same compound?
**A.** 0.1 µg/mL (≈ 0.0697 µM)

**Q.** What about the MIC [1] of the same compound?
**A.** 1 µg/mL (≈ 0.697 µM)

**Q.** What about the MIC [2] of the same compound?
**A.** 1 µg/mL (≈ 0.697 µM)

**Q.** And the “MIC in RPMI EC 25922” value [2]?
**A.** 1.00 µg/mL (≈ 0.697 µM)

**Q.** What about the MIC [3] of the same compound?
**A.** 1 µg/mL (≈ 0.697 µM)

**Q.** And the MIC [4]?
**A.** 1 µg/mL (≈ 0.697 µM)

**Q.** What about the MIC [5] of the same compound?
**A.** >128 µg/mL

**Q.** Which results are given for `C#CCOCCOCCOCCOCCC(=O)N[C@@H](CCCCCC)C(=O)N[C@@H](CCN)C(=O)N[C@H](C(=O)NN(CCN)C(=O)N[C@H]1CCNC(=O)[C@H]([C@@H](C)O)NC(=O)[C@H](CCN)NC(=O)[C@H](CCN)NC(=O)[C@H](CC(C)C)NC(=O)[C@@H](Cc2ccccc2)NC(=O)[C@H](CCN)NC1=O)[C@@H](C)O` [Int-129] ({Propargyl(OCH2CH2)4CO}-[Aoc(2)][Dab]T[azaDab][Dab][Dab][dF]L[Dab][Dab]T; lactam 5-C)?
**A.** protection (survival over 5 days), FIG. 119 [9]: 60%; survival (monitored 5 days) ([10]; 10 mg/kg IV twice at t=+1 h and +4 h, n=5 (FIG. 119)): 60%; MIC [1]: 2 µg/mL (≈ 1.38 µM); MIC [2]: 1 µg/mL (≈ 0.691 µM); MIC [3]: 2 µg/mL (≈ 1.38 µM); MIC [4]: 2 µg/mL (≈ 1.38 µM)

**Q.** `C#CCOCCOCCOCCOCCC(=O)N[C@@H](CCCCCC)C(=O)N[C@@H](CCN)C(=O)N[C@H](C(=O)N[C@@H](CCN)C(=O)N[C@H]1CCNC(=O)[C@H]([C@@H](C)O)NC(=O)[C@H](CCN)NC(=O)[C@H](CCN)NC(=O)[C@H](CC(C)C)NC(=O)[C@@H](Cc2ccccc2)NC(=O)[C@H](CCN)NC1=O)[C@H](O)CCC(F)(F)F` [Int-118] ({Propargyl(OCH2CH2)4CO}-[Aoc(2)][Dab][X2][Dab][Dab][Dab][dF]L[Dab][Dab]T; lactam 5-C) was tested. Which “protection (survival over 5 days), FIG. 118” value [9] did it give?
**A.** 40%

**Q.** What about the “protection against lethal challenge (survival monitored 5 days)” value [10] of the same compound?
**A.** 40%

**Q.** What about the “MBC in blood AB 5075” value [6] of the same compound?
**A.** 0.025 µg/mL (≈ 0.0164 µM)

**Q.** And the “MBC in blood EC 25922” value [7]?
**A.** 0.05 µg/mL (≈ 0.0327 µM)

**Q.** What about the “MBC in blood PA 01” value [8] of the same compound?
**A.** >0.2 µg/mL

**Q.** What about the MIC [1] of the same compound?
**A.** 1 µg/mL (≈ 0.654 µM)

**Q.** And the MIC [2]?
**A.** 1 µg/mL (≈ 0.654 µM)

**Q.** What about the “MIC in RPMI EC 25922” value [2] of the same compound?
**A.** 0.95 µg/mL (≈ 0.621 µM)

**Q.** What about the MIC [3] of the same compound?
**A.** 2 µg/mL (≈ 1.31 µM)

**Q.** What about the MIC [4] of the same compound?
**A.** 2 µg/mL (≈ 1.31 µM)

**Q.** How did the “protection (survival over 5 days), FIG. 118” value [9] turn out when `C#CCOCCOCCOCCOCCC(=O)N[C@@H](CCC(C)C)C(=O)N[C@@H](CCN)C(=O)N[C@H](C(=O)NNC(=O)N[C@H]1CCNC(=O)[C@H]([C@@H](C)O)NC(=O)[C@H](CCN)NC(=O)[C@H](CCN)NC(=O)[C@H](CC(C)C)NC(=O)[C@@H](Cc2ccccc2)NC(=O)[C@H](CCN)NC1=O)[C@H](O)CCCCC` [Int-116] ({Propargyl(OCH2CH2)4CO}-[hLeu][Dab][X3][azaGly][Dab][Dab][dF]L[Dab][Dab]T; lactam 5-C) was run?
**A.** 100%

**Q.** And the “protection against lethal challenge (survival monitored 5 days)” value [10]?
**A.** fully protective

**Q.** What about the “MBC in blood AB 5075” value [6] of the same compound?
**A.** 0.05 µg/mL (≈ 0.0346 µM)

**Q.** What about the “MBC in blood EC 25922” value [7] of the same compound?
**A.** 0.2 µg/mL (≈ 0.138 µM)

**Q.** What about the “MBC in blood PA 01” value [8] of the same compound?
**A.** >0.2 µg/mL

**Q.** What about the MIC [1] of the same compound?
**A.** 2 µg/mL (≈ 1.38 µM)

**Q.** What about the MIC [2] of the same compound?
**A.** 2 µg/mL (≈ 1.38 µM)

**Q.** What about the “MIC in RPMI EC 25922” value [2] of the same compound?
**A.** 1.05 µg/mL (≈ 0.726 µM)

**Q.** And the MIC [3]?
**A.** 2 µg/mL (≈ 1.38 µM)

**Q.** And the MIC [4]?
**A.** 2 µg/mL (≈ 1.38 µM)

**Q.** What about the MIC [5] of the same compound?
**A.** >128 µg/mL

Reference: patent US20230165970A1, “COMPOSITIONS AND METHODS FOR THE TREATMENT OF BACTERIAL INFECTIONS” (priority 2017, published 2023)
